Assay results published in patent US9873693B2 (Sunesis Pharmaceuticals, Inc., priority 2006, dated 2018).
Like-named read-outs stand apart in the source and are kept apart here.

Columns and labels:
dephosphorylated PDK1 = dephosphorylated PDK1 (Homo sapiens (Human), UniProt O15530); assay: PDK1 kinase assay (coupled PDK1/AKT/FAM-crosstide, IMAP); format: biochemical; conditions: 25 nM un-phosphorylated PDK1, 24 μM ATP; read-out: Inhibition of dephospo-PDK1 in vitro IC50
Outline: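 The FAM-crosstide phosphorylation readout was IMAP polarization (ex 485/em 530 nm, 2 h binding), with 4-parameter fits of ΔmP data. The reaction ran 30 min at 25 °C with 24 μM ATP, and contained 25 nM phosphatase-treated PDK1 (aa 51–360) plus 30 nM unphosphorylated AKT2-PIFtide and 100 nM substrate. Buffer was 10 mM Tris pH 7.2, 10 mM MgCl2, 0.01% Triton X-100 and 1 mM DTT.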

Phospho-T308 Akt = Phospho-T308 Akt detection using immunoblot (western blot) in PC-3 cells; format: cell-based; conditions: for Reduction of Cellular Levels of Akt p308 By Western: 2 hour incubation, concentration not given in Table 2; for inhibition at 2 µM / inhibition at 5 µM: Homo sapiens, read-out: Percent Inhibition of phospho-Akt (308) By Western
Description: A Phospho-T308 Akt detection using immunoblot (western blot) analysis was performed as described below.
PC-3 prostate cells were plated in a 6 well plate in F12K media (Invitrogen, Carlsbad, Calif.) plus 10% FBS (Invitrogen) and placed in incubator overnight. The stock of compound A was a 50 mM solution in DMSO. 1000× dilutions of the compound were made in DMSO. The 1000× dilutions include, 35 mM, 25 mM, 15 mM, 10 mM, 7 mM, 5 mM, and 1 mM. 1 μl of the 1000× dilutions was added to 1 ml F12K media without serum for final concentrations of […]. 1 μl of DMSO was added to 1 ml media with no serum for a control. The 1 ml DMSO or compound plus media was then added to the cells. Following a 2 hour incubation at 37° C., cells were harvested and washed in PBS and subjected to centrifugation at 3,300 rpm for 5 minutes. Cells were lysed in 100 μl of Bio Rad Bioplex buffer containing protease inhibitors (BioRad, Hercules, Calif.) for 30 minutes on ice followed by centrifugation at 13,000 rpm for 5 minutes. The protein content of the supernatant was assayed using DC Protein Assay (BioRad). 25 μl of protein was added to 4× sample buffer (Invitrogen) and sample reducer (Invitrogen) and run on a 4-12% NuPage gel (Invitrogen). Proteins were then transferred to nitrocellulose (Invitrogen). The membrane was blocked in Tris-buffered saline (Sigma, St. Louis, Mo.) plus 0.1% Tween (Sigma) (T-TBS) plus 5% blotting grade milk (BioRad) for 60 minutes. Membranes were then incubated in T-TBS plus 5% BSA (Sigma) plus 1:1000 of anti-phospho akt (Thr 308) (Cell Signaling Technology, Beverly, Mass.) overnight at 4° C. Membranes were washed in T-TBS then incubated in 1:2000 of anti-rabbit-HRP (Cell Signaling) in TTBS plus 5% milk. Membranes were washed again and proteins were visualized with Super Signal West Pico (Pierce, Rockford, Ill.) and using Kodak BioMax MR film (Kodak, Rochester, N.Y.).
Phospho-akt 308 protein bands on the film were quantified using densitometry. An Alpha Imager (Alpha Innotech Corp, San Leandro, Calif.) using AlphaEase FC software version 4.1.0 (Alpha Innotech Corp.) was used to quantitate protein bands. Briefly, a rectangle of equal size was placed around each protein band as well as a background spot on the film. The densitometry values (IDV=Integrated Density Value) obtained for the background spot was then subtracted from the values obtained for the protein bands. These values were used to obtain an EC50 value using non-linear regression analysis in GraphPad Prism Version 4.00 (Graph Pad Prism, San Diego, Calif.). Percent decrease in expression of phosphoh-akt 308 were also measured specifically at 2 μM and 5 μM levels of inhibitor.

phosphorylated PDK1 = phosphorylated PDK1 (Homo sapiens (Human), UniProt O15530); assay: PDK1 kinase assay (coupled PDK1/AKT/FAM-crosstide, IMAP); format: biochemical; conditions: 0.5 nM phosphorylated PDK1, 24 μM ATP; read-out: Inhibition of phospo-PDK1 in vitro IC50
phospho-akt (Thr308) = phospho-akt (Thr308) MSD ELISA in PC-3 cells; format: cell-based; conditions: Homo sapiens; for inhibition at 1 µM / inhibition at 10 µM: read-out: Percent Inhibition of phospho-Akt (308) By MSD ELISA; for EC50: PC-3, 2 h
Outline: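 Read-out is MSD electrochemiluminescence after lysate capture overnight at 4 degrees and 1 hr RT detection-antibody step. Before lysis, overnight-plated PC-3 cells received three-fold serial dilutions of inhibitor in serum-free medium, with DMSO-only high controls.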

[1] = PC-3 cells, 2 hours, no serum, read-out: Inhibition of P308 Akt in cells using MSD EC50
[2] = PC-3 cells, 2 hours, no serum, read-out: Reduction of Cellular Levels of Akt p308 By MSD ELISA (EC50 μM)
[3] = read-out: Reduction of Cellular Levels of Akt p308 By MSD ELISA (EC50 μM)

Sequence of phosphorylated PDK1 (O15530 51-360): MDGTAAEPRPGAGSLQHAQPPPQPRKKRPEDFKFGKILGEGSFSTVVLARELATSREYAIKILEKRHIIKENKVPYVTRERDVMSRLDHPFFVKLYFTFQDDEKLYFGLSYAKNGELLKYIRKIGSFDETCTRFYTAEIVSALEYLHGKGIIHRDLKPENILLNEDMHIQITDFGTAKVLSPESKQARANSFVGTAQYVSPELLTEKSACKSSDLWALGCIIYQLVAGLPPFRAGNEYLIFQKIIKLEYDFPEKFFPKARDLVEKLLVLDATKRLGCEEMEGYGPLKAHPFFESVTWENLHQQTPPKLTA
Sequence of dephosphorylated PDK1 (O15530 51-360): as above

SMILES | IC50 (dephosphorylated PDK1) [nM] | Reduction of Cellular Levels of Akt p308 By Western (Phospho-T308 Akt) | IC50 (phosphorylated PDK1) [nM] | inhibition at 2 µM (Phospho-T308 Akt) [%] | inhibition at 1 µM (phospho-akt (Thr308); PC-3 cells) [%] | inhibition at 10 µM (phospho-akt (Thr308); PC-3 cells) [%] | EC50 (phospho-akt (Thr308); [1]) [µM] | EC50 (phospho-akt (Thr308); [2]) [µM] | EC50 (phospho-akt (Thr308); read-out: Inhibition of P308 Akt in cells using MSD EC50) [µM] | EC50 (phospho-akt (Thr308); [3]) [µM] | inhibition at 5 µM (Phospho-T308 Akt) [%]
O=C(NCc1cccc(-c2ccc3nccn3c2)c1)c1cccn(Cc2ccc(F)c(F)c2)c1=O [Cpd 9] | < 500 | bbb (inhibition of more than 75%) | < 500 | – | – | – | – | – | – | – | –
O=C(NCc1ccc(-c2c[nH]c3nccnc23)s1)c1cccn(Cc2ccc(F)c(F)c2)c1=O [Cpd 14] | < 500 | bb (inhibition of from 25% to 75%) | < 500 | 25 to 75 | 25 to 75 | 25 to 75 | – | – | – | – | –
O=C(NC1CCCc2ccc(-c3c[nH]c4ncccc34)cc21)c1cccn(Cc2ccc(F)c(F)c2)c1=O (centres unmarked) [Cpd 16] | < 500 | bb (inhibition of from 25% to 75%) | < 500 | < 25 | – | – | > 5 | > 5 | – | – | –
CNC(=O)C[C@@H](NC(=O)c1cccn(Cc2ccc(F)c(F)c2)c1=O)c1ccc(-c2c[nH]c3ncccc23)s1 [Cpd 18] | – | bb (inhibition of from 25% to 75%) | < 500 | 25 to 75 | – | – | 1 to 5 | 1 to 5 | – | – | –
NC(=O)C[C@@H](NC(=O)c1cccn(Cc2ccc(F)c(F)c2)c1=O)c1ccc(-c2c[nH]c3ncccc23)s1 [Cpd 19] | – | bbb (inhibition of more than 75%) | < 500 | > 75 | – | – | – | – | 1 to 5 | 1 to 5 | –
O=C(O)c1cnc2[nH]cc(-c3ccc(CNC(=O)c4cccn(Cc5ccc(F)c(F)c5)c4=O)s3)c2c1 [Cpd 21] | – | b (inhibition of less 25%) | < 500 | < 25 | – | – | – | – | – | > 5 | –
O=C(NCc1ncc(-c2c[nH]c3ncccc23)s1)c1cccn(Cc2ccc(F)c(F)c2)c1=O [Cpd 132] | – | bbb (inhibition of more than 75%) | < 500 | – | 25 to 75 | > 75 | < 1 | – | – | – | > 75
O=C(Nc1c(F)cccc1Oc1ccc2[nH]c(=O)[nH]c2c1)c1cccn(Cc2ccc(F)c(F)c2)c1=O [Cpd 133] | < 500 | bbb (inhibition of more than 75%) | < 500 | – | < 25 | 25 to 75 | – | – | – | – | > 75
O=C(NCc1cnc(-c2c[nH]c3ncccc23)s1)c1cccn(Cc2ccc(F)c(F)c2)c1=O [Cpd 134] | < 500 | bbb (inhibition of more than 75%) | < 500 | – | < 25 | > 75 | – | – | – | – | > 75
COC(=O)[C@H](COc1ccc2[nH]c(=O)[nH]c2c1)NC(=O)c1cccn(Cc2ccc(F)c(F)c2)c1=O [Cpd 135] | < 500 | bbb (inhibition of more than 75%) | < 500 | – | – | – | 1 to 5 | 1 to 5 | – | – | > 75
